Reference: PMC10756276, “Highly specific σ2R/TMEM97 ligand FEM-1689 alleviates neuropathic pain and inhibits the integrated stress response” (Proceedings of the National Academy of Sciences of the …, 2023)
“Also recorded” adds a separate entry of the source. Where two headings read alike, the source gives them in different places.

Legend:
5HT1B = biological target: T1, 5HT1B (Homo sapiens, UniProt P28222); test: PDSP competitive binding assay; settings: 10 µM test article; read-out: Ki: primary assay inhibition of radioligand binding, 5HT1B
T1 construct: purchased NIMH Psychoactive Drug Screening Program (PDSP), University of North Carolina at Chapel Hill

5HT1D = 5HT1D (Homo sapiens, UniProt P28221); test: PDSP competitive binding assay; settings: 10 µM test article; read-out: Ki: primary assay inhibition of radioligand binding, 5HT1D
5HT2A = 5HT2A (Homo sapiens, UniProt P28223); test: PDSP competitive binding assay; settings: 10 µM test article; read-out: Ki: primary assay inhibition of radioligand binding, 5HT2A
5HT2C = 5HT2C (Homo sapiens, UniProt P28335); test: PDSP competitive binding assay; settings: 10 µM test article; read-out: Ki: primary assay inhibition of radioligand binding, 5HT2C
5HT6 = 5HT6 (Homo sapiens, UniProt P50406); test: PDSP competitive binding assay; settings: single determination
5HT7 = biological target: T2, 5HT7 (Homo sapiens, UniProt P34969); test: PDSP competitive binding assay; settings: 10 µM test article; read-out: Ki: primary assay inhibition of radioligand binding, 5HT7
T2 construct: purchased NIMH Psychoactive Drug Screening Program (PDSP), University of North Carolina at Chapel Hill

Alpha1b = biological target: T3, Alpha1b (Homo sapiens, UniProt P35368); test: PDSP competitive binding assay; settings: 10 µM test article; read-out: Ki: primary assay inhibition of radioligand binding, Alpha1b
T3 construct: purchased NIMH Psychoactive Drug Screening Program (PDSP), University of North Carolina at Chapel Hill

PBR = biological target: T4, PBR (Rattus norvegicus, UniProt P16257); test: PDSP competitive binding assay; settings: 10 µM test article; read-out: Ki: primary assay inhibition of radioligand binding, PBR
T4 construct: purchased NIMH Psychoactive Drug Screening Program (PDSP), University of North Carolina at Chapel Hill

BZP Rat Brain = test: PDSP competitive binding assay
D2 = D2 (Homo sapiens, UniProt P14416); test: PDSP competitive binding assay; settings: 10 µM test article; read-out: Ki: primary assay inhibition of radioligand binding, D2
D4 = D4 (Homo sapiens, UniProt P21917); test: PDSP competitive binding assay; settings: 10 µM test article; read-out: Ki: primary assay inhibition of radioligand binding, D4
DOR = DOR (Homo sapiens, UniProt P41143); test: PDSP competitive binding assay; settings: 10 µM test article; read-out: Ki: primary assay inhibition of radioligand binding, DOR
H1 = biological target: T5, H1 (Homo sapiens, UniProt P35367); test: PDSP competitive binding assay; settings: 10 µM test article; read-out: Ki: primary assay inhibition of radioligand binding, H1
T5 construct: purchased NIMH Psychoactive Drug Screening Program (PDSP), University of North Carolina at Chapel Hill

KOR = KOR (Homo sapiens, UniProt P41145); test: PDSP competitive binding assay
M1 = M1 (Homo sapiens, UniProt P11229); test: PDSP competitive binding assay; settings: 10 µM test article; read-out: Ki: primary assay inhibition of radioligand binding, M1
M3 = biological target: T6, M3 (Homo sapiens, UniProt P20309); test: PDSP competitive binding assay; settings: 10 µM test article; read-out: Ki: primary assay inhibition of radioligand binding, M3
T6 construct: purchased NIMH Psychoactive Drug Screening Program (PDSP), University of North Carolina at Chapel Hill

MOR = MOR (Homo sapiens, UniProt P35372); test: PDSP competitive binding assay; settings: 10 µM test article; read-out: Ki: primary assay inhibition of radioligand binding, MOR
BiP in mouse DRG neurons = test: BiP immunocytochemistry in cultured DRG neurons; assay type: cell-based; settings: ISRIB 200 nM
Protocol: The ICC protocol was based on a previously published protocol ([76]). […] Cells were blocked with 10% normal goat serum (NGS) in PBS-triton X (0.1%). […] Antibodies were incubated at 4 °C overnight. […] It was washed with PBS twice. […] Images were analyzed using Olympus CellSens. […] Number of cells analyzed are detailed in SI Appendix, Tables S3 and S4. […]
T his BSA gradient containing the cells was centrifuged at 900g for 5 min at room temperatur e.
The pellet containing the cells was resuspended in Br ainPhys media (STEMCell #05790) containing 2% […]
1% Gluta Max (Gibco # 350 5 0061). Hu man DRG ne uron s were plated a nd grown o n glass coverslips coate d with po ly-D-lysine (Sigma #P7405). C ultured D RG neurons were plated for 24 hours before being treated.
Methylglyoxal (Sigma- Aldrich #M0252) and F EM- 1689 were serially diluted in media.
Mouse samples - DRG cultures […]
anesthesia and decapitated. […]
section above with minor differences.
Mouse DRG neurons were grown in
SAS-0132 and DKR-1677 were […]
dissolved in 100% DMSO to a final concentr ation of 200mM and stored at - 20 °C. and DKR-1677 were serially diluted in media. Untreated media was completely replaced with media containing each compound. […]
Slides were […]
incubated with 1:2 diluted hydrogen peroxide in distilled water for 10 min at r oom temper ature and washed twice in distilled water. The protease IV was applied to each section and incubated for 5 min at room temperature. Slides were w ashed twice in 1X PBS and RNA scope was performed immediately. A mixture of probes - Tmem97, Scn10a, and Fabp7 – was hybridized for 2 hours at 40 °C in a humidity control tray

Alpha1a = biological target: T7, Alpha1a (Homo sapiens, UniProt P35348); test: PDSP competitive binding assay
T7 sequence (P35348 1-466): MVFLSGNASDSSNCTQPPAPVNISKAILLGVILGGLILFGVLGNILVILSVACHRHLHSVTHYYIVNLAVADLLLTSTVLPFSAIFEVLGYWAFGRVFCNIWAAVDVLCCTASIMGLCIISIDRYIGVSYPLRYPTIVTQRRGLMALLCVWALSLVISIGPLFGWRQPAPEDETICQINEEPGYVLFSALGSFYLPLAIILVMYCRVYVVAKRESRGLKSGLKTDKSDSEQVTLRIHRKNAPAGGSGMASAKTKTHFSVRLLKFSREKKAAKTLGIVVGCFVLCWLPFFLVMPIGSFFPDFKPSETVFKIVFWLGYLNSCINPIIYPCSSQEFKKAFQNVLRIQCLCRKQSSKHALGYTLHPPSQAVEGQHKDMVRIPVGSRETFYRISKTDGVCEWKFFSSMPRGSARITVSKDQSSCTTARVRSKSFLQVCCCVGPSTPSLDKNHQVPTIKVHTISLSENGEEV

[1] = dose response curve, given as LogKi with negative sign

SMILES: OCCCN1CC[C@@H]2C[C@H]1c1cc(-c3ccc(C(F)(F)F)cc3)ccc12 [FEM-1689]
- inhibition at 10 µM (5HT1B): < 50%
- inhibition at 10 µM (5HT1D): < 50%
- inhibition at 10 µM (5HT2A): < 50%
- inhibition at 10 µM (5HT2C): < 50%
- Ki (5HT6): > 10 µM
- inhibition at 10 µM (5HT7): < 50%
- inhibition at 10 µM (Alpha1b): < 50%
- inhibition at 10 µM (PBR): < 50%
- LogKi, BZP Rat Brain (BZP Rat Brain; [1]): -5.18
- Ki (BZP Rat Brain; dose response curve, read-out: Ki, BZP Rat Brain): 6.59 µM
- Ki (BZP Rat Brain; single determination, read-out: BZP Rat Brain Ki): 6.59 µM
- inhibition at 10 µM (D2): < 50%
- inhibition at 10 µM (D4): < 50%
- inhibition at 10 µM (DOR): < 50%
- inhibition at 10 µM (H1): < 50%
- Ki (KOR; Run 1, read-out: Ki, KOR): 4.7 µM
- Ki (KOR; Run 2, read-out: Ki, KOR): 9.49 µM
- Ki (KOR; read-out: KOR Ki): 7.09 ± 2.4 µM
- inhibition at 10 µM (M1): < 50%
- inhibition at 10 µM (M3): < 50%
- inhibition at 10 µM (MOR): < 50%
- BiP levels (BiP in mouse DRG neurons; TMEM97KO mouse DRG neurons): una ffecte d; also recorded: did not reduce levels of BiP
- BiP levels (BiP in mouse DRG neurons; wild-type mouse DRG neurons): reduced at a high concentration of 1000 nM
- LogKi, Alpha1A (Alpha1a; [1]): -5.70
- Ki (Alpha1a; read-out: Alpha1a Ki, single determination): 1.99 µM
- Ki (Alpha1a; read-out: Ki, Alpha1A, dose response curve): 1.99 µM
